Results: US12599582B2, “Pyrrole compounds” (ALIGOS THERAPEUTICS, INC., priority 2019, dated 2026)

Test system: HBV
Experiment: HBV-DNA Antiviral Assay Using HepG2.2.15 Cells (extracellular HBV DNA by qPCR)
Assay type: cell-based, hepatitis B virus (HBV)
Details: HBV DNA inhibition, HepG2.2.15 cells, extracellular HBV DNA by qPCR; read-out: EC50
Method: The following assay procedure describes the HBV antiviral assay. This assay uses HepG2.2.15 cells, which have been transfected with HBV genome, and extracellular HBV DNA quantification as endpoint. Cell viability is assessed in parallel by measuring the intracellular ATP content using the CellTiter-Glo® reagent from Promega.
On day 0, HepG2.2.15 cells were seeded in 96-well plates at a density of 6.0×10^4 cells/well (0.1 mL/well). The cells were incubated at 37° C. and 5% CO2.
On day 1, the test articles were diluted and added to cell culture wells (8 concentrations, 4-fold dilution, in duplicate). GLS4, Tenofovir and Sorafenib were used as reference compounds. 100 μL of culture medium containing the compounds was added to the plate, and the final total volume per well was 200 μL. The final concentration of DMSO in the culture medium was 0.5%. The plate map of compound treatment is shown below. The cells were cultured at 37° C. and 5% CO2 for 3 days.
On day 4, the plates were refreshed with culture media with compounds.
On day 7, cell viability was assessed using the CellTiter-Glo®, and the cell culture supernatants were collected for determination of HBV DNA by qPCR.
Extracellular DNA was isolated with QIAamp 96 DNA Blood Kit per the manufacturer's manual. HBV DNA was then quantified by qPCR with HBV specific primers and probes as specified in Table 1 using the FastStart Universal MasterMix from Roche on an ABI-7900HT. The PCR cycle program consisted of 95° C. for 10 min, followed by 40 cycles at 95° C. for 15 sec and 60° C. for 1 min.
A DNA standard was prepared by dilution of the pAAV2 HBV1.3 plasmid with concentrations ranging from 10 to 1×10^7 copies/uL and used to generate a standard curve by plotting Ct value vs. the concentration of the HBV plasmid DNA standard. The quantity of HBV DNA in each sample was determined by interpolating from the standard curve.
Cell viability was calculated as follows: % Cell viability=(luminescence value of test sample−average luminescence value of blank)/(average luminescence value of 0.5% DMSO control−average luminescence of blank)×100%. HBV DNA inhibition was calculated as follows: 100−(HBV DNA copy number of test sample−HBV DNA copy number of ETV)/HBV DNA copy number of 0.5% DMSO control−HBV DNA copy number of ETV)×100%. The CC50, EC50 and EC90 values were determined by dose-response curves fitted by GraphPad Prism using “log (agonist) vs. response—Variable slope”.

For `C#C[C@H](NC(=O)C(=O)c1c(C)c(C(=O)Nc2ccc(F)c(C#N)c2)n(C)c1C)C1COC1` [Compound 57], the EC50 was < 1 nM.

Same assay, conditions: Hepatitis B virus; HBV DNA inhibition, HepG2.2.15 cells, extracellular HBV DNA by qPCR; read-out: EC50

Compared with `C#CC1(NC(=O)C(=O)c2c(F)c(C(=O)Nc3ccc(F)c(C#N)c3)n(C)c2C)CC(F)(F)C1` [Compound 56, N-(3-cyano-4-fluoro-phenyl)-4-[2-[(1-ethynyl-3,3-difluoro-cyclobutyl)amino]-2-oxo-acetyl]-3-fluoro-1,5-dimethyl-pyrrole-2-carboxamide], `Cc1c(C(=O)C(=O)NC2(C#CC(F)(F)F)CC(O)C2)c(C)n(C)c1C(=O)Nc1ccc(F)c(C#N)c1` (stereo not drawn) [Compound 62, N-(3-cyano-4-fluoro-phenyl)-4-[2-[[3-hydroxy-1-(3,3,3-trifluoroprop-1-ynyl)cyclobutyl]amino]-2-oxo-acetyl]-1,3,5-trimethyl-pyrrole-2-carboxamide] is higher in EC50: < 1 nM for the first, 100 to 1000 nM for the second.

`C#C[C@@H](NC(=O)C(=O)c1c(C)c(C(=O)Nc2ccc(F)c(C#N)c2)n(C)c1C)C1COC1` [Compound 58, N-(3-cyano-4-fluoro-phenyl)-1,3,5-trimethyl-4-[2-oxo-2-[[(1S)-1-(oxetan-3-yl)prop-2-ynyl]amino]acetyl]pyrrole-2-carboxamide] and `C#C[C@@H](CCO)NC(=O)C(=O)c1c(C)c(C(=O)Nc2ccc(F)c(C#N)c2)n(C)c1C` [Compound 61a, N-(3-cyano-4-fluoro-phenyl)-1,3,5-trimethyl-4-[2-oxo-2-[[(1R)-1-(2-hydroxyethyl)prop-2-ynyl]amino]acetyl]pyrrole-2-carboxamide] fall in the same range of EC50: 1 to 10 nM for the first, 1 to 10 nM for the second.

`C#C[C@H](CCO)NC(=O)C(=O)c1c(C)c(C(=O)Nc2ccc(F)c(C#N)c2)n(C)c1C` [Compound 61b, N-(3-cyano-4-fluoro-phenyl)-1,3,5-trimethyl-4-[2-oxo-2-[[(1S)-1-(2-hydroxyethyl)prop-2-ynyl]amino]acetyl]pyrrole-2-carboxamide] and `C#C[C@](C)(CO)NC(=O)C(=O)c1c(C)c(C(=O)Nc2ccc(F)c(C#N)c2)n(C)c1C` [Compound 64a, N-(3-cyano-4-fluoro-phenyl)-1,3,5-trimethyl-4-[2-oxo-2-[[(1R)-1-(hydroxymethyl)-1-methyl-prop-2-ynyl]amino]acetyl]pyrrole-2-carboxamide] fall in the same range of EC50: 1 to 10 nM for the first, 1 to 10 nM for the second.

`C#C[C@](CO)(NC(=O)C(=O)c1c(C)c(C(=O)Nc2ccc(F)c(C#N)c2)n(C)c1C)C1CC1` [Compound 63a, N-(3-cyano-4-fluoro-phenyl)-1,3,5-trimethyl-4-[2-oxo-2-[[(1R)-1-cyclopropyl-1-(hydroxymethyl)prop-2-ynyl]amino]acetyl]pyrrole-2-carboxamide] and `C#C[C@@](CO)(NC(=O)C(=O)c1c(C)c(C(=O)Nc2ccc(F)c(C#N)c2)n(C)c1C)C1CC1` [Compound 63b, N-(3-cyano-4-fluoro-phenyl)-1,3,5-trimethyl-4-[2-oxo-2-[[(1S)-1-cyclopropyl-1-(hydroxymethyl)prop-2-ynyl]amino]acetyl]pyrrole-2-carboxamide] fall in the same range of EC50: 1 to 10 nM for the first, 1 to 10 nM for the second.

`C#C[C@@](C)(CO)NC(=O)C(=O)c1c(C)c(C(=O)Nc2ccc(F)c(C#N)c2)n(C)c1C` [Compound 64b, N-(3-cyano-4-fluoro-phenyl)-1,3,5-trimethyl-4-[2-oxo-2-[[(1S)-1-(hydroxymethyl)-1-methyl-prop-2-ynyl]amino]acetyl]pyrrole-2-carboxamide] and `C=C[C@](C)(CO)NC(=O)C(=O)c1c(C)c(C(=O)Nc2ccc(F)c(C#N)c2)n(C)c1C` [Compound 72a, N-(3-cyano-4-fluoro-phenyl)-1,3,5-trimethyl-4-[2-oxo-2-[[(1R)-1-(hydroxymethyl)-1-methyl-allyl]amino]acetyl]pyrrole-2-carboxamide] fall in the same range of EC50: 1 to 10 nM for the first, 1 to 10 nM for the second.

First: C#C[C@](CO)(NC(=O)C(=O)c1c(C)c(C(=O)Nc2ccc(F)c(C(F)(F)F)c2)n(C)c1C)C1CC1 [Compound 65a, N-[4-fluoro-3-(trifluoromethyl)phenyl]-1,3,5-trimethyl-4-[2-oxo-2-[[(1R)-1-cyclopropyl-1-(hydroxymethyl)prop-2-ynyl]amino]acetyl]pyrrole-2-carboxamide]
Second: C#C[C@@](CO)(NC(=O)C(=O)c1c(C)c(C(=O)Nc2ccc(F)c(C(F)(F)F)c2)n(C)c1C)C1CC1 [Compound 65b, N-[4-fluoro-3-(trifluoromethyl)phenyl]-1,3,5-trimethyl-4-[2-oxo-2-[[(1S)-1-cyclopropyl-1-(hydroxymethyl)prop-2-ynyl]amino]acetyl]pyrrole-2-carboxamide]
The EC50 of the first is lower: < 1 nM for the first, 1 to 10 nM for the second.

Compared with `C#C[C@](C)(CO)NC(=O)C(=O)c1c(C)c(C(=O)Nc2ccc(F)c(C(F)(F)F)c2)n(C)c1C` [Compound 66a, (R)—N-(4-fluoro-3-(trifluoromethyl)phenyl)-4-(2-((1-hydroxy-2-methylbut-3-yn-2-yl)amino)-2-oxoacetyl)-1,3,5-trimethyl-1H-pyrrole-2-carboxamide], `C#C[C@@](C)(CO)NC(=O)C(=O)c1c(C)c(C(=O)Nc2ccc(F)c(C(F)(F)F)c2)n(C)c1C` [Compound 66b, (S)—N-(4-fluoro-3-(trifluoromethyl)phenyl)-4-(2-((1-hydroxy-2-methylbut-3-yn-2-yl)amino)-2-oxoacetyl)-1,3,5-trimethyl-1H-pyrrole-2-carboxamide] is higher in EC50: < 1 nM for the first, 1 to 10 nM for the second.

Compared with `C#CC1(NC(=O)C(=O)c2c(C)c(C(=O)Nc3ccnc(F)c3Br)n(C)c2C)COC1` [Compound 67, N-(3-bromo-2-fluoro-4-pyridyl)-4-[2-[(3-ethynyloxetan-3-yl)amino]-2-oxo-acetyl]-1,3,5-trimethyl-pyrrole-2-carboxamide], `C#CC1(NC(=O)C(=O)c2c(C)c(C(=O)Nc3ccnc(F)c3Br)n(C)c2C)CC(F)(F)C1` [Compound 68, N-(3-bromo-2-fluoro-4-pyridyl)-4-[2-[(1-ethynyl-3,3-difluoro-cyclobutyl)amino]-2-oxo-acetyl]-1,3,5-trimethyl-pyrrole-2-carboxamide] is lower in EC50: 10 to 100 nM for the first, < 1 nM for the second. The second is the more potent here.

`C=C[C@](C)(CO)NC(=O)C(=O)c1c(C)c(C(=O)Nc2ccc(F)c(C(F)(F)F)c2)n(C)c1C` [Compound 69a, N-[4-fluoro-3-(trifluoromethyl)phenyl]-1,3,5-trimethyl-4-[2-oxo-2-[[(1R)-1-(hydroxymethyl)-1-methyl-allyl]amino]acetyl]pyrrole-2-carboxamide] and `C=C[C@@](C)(CO)NC(=O)C(=O)c1c(C)c(C(=O)Nc2ccc(F)c(C(F)(F)F)c2)n(C)c1C` [Compound 69b, N-[4-fluoro-3-(trifluoromethyl)phenyl]-1,3,5-trimethyl-4-[2-oxo-2-[[(1S)-1-(hydroxymethyl)-1-methyl-allyl]amino]acetyl]pyrrole-2-carboxamide] fall in the same range of EC50: 1 to 10 nM for the first, 1 to 10 nM for the second.

`Cc1c(C(=O)C(=O)NC(C)(C)c2cnn(C)c2)c(C)n(C)c1C(=O)Nc1ccc(F)c(C#N)c1` [Compound 70, N-(3-cyano-4-fluoro-phenyl)-1,3,5-trimethyl-4-[2-[[1-methyl-1-(1-methylpyrazol-4-yl)ethyl]amino]-2-oxo-acetyl]pyrrole-2-carboxamide] and `C=C[C@@](C)(CO)NC(=O)C(=O)c1c(C)c(C(=O)Nc2ccc(F)c(C#N)c2)n(C)c1C` [Compound 72b, N-(3-cyano-4-fluoro-phenyl)-1,3,5-trimethyl-4-[2-oxo-2-[[(1S)-1-(hydroxymethyl)-1-methyl-allyl]amino]acetyl]pyrrole-2-carboxamide] fall in the same range of EC50: 1 to 10 nM for the first, 1 to 10 nM for the second.

`C#C[C@](CO)(NC(=O)C(=O)c1c(C)c(C(=O)Nc2ccc(F)c(C#N)c2)n(C)c1C)C(F)(F)F` [Compound 71a, N-(3-cyano-4-fluoro-phenyl)-1,3,5-trimethyl-4-[2-oxo-2-[[(1R)-1-(hydroxymethyl)-1-(trifluoromethyl)prop-2-ynyl]amino]acetyl]pyrrole-2-carboxamide] and `C#C[C@@](CO)(NC(=O)C(=O)c1c(C)c(C(=O)Nc2ccc(F)c(C#N)c2)n(C)c1C)C(F)(F)F` [Compound 71b, N-(3-cyano-4-fluoro-phenyl)-1,3,5-trimethyl-4-[2-oxo-2-[[(1S)-1-(hydroxymethyl)-1-(trifluoromethyl)prop-2-ynyl]amino]acetyl]pyrrole-2-carboxamide] fall in the same range of EC50: 1 to 10 nM for the first, 1 to 10 nM for the second.

In the case of `C=C[C@](CO)(NC(=O)C(=O)c1c(C)c(C(=O)Nc2ccc(F)c(C#N)c2)n(C)c1C)C(F)(F)F` [Compound 74a, N-(3-cyano-4-fluoro-phenyl)-1,3,5-trimethyl-4-[2-oxo-2-[[(1R)-1-(hydroxymethyl)-1-(trifluoromethyl)allyl]amino]acetyl]pyrrole-2-carboxamide], the EC50 is reported as 1 to 10 nM.
